Patent US20260098058A1, “COMPOUND - DIAGNOSTIC MARKER FOR OVARIAN CANCER, METHOD FOR DETECTING ENZYMATIC ACTIVITY, METHOD FOR DIAGNOSIS OF OVARIAN CANCER, KIT COMPRISING THE COMPOUND, USES OF THE COMPOUND AND METHOD FOR THE TREATMENT OF OVARIAN CANCER” (Urteste S.A., priority 2022, published 2026)
“And” between values parts separate entries of the source, which are not always exact repeats. Equal values may be shown once. “Also recorded” adds a separate entry of the source. Starred links: 1 amine or outer side, 2 acyl side, 3 side chain; linkers in the order of their positions; H or OH if unused. Non-standard residues stand in square brackets, D forms with d. No end group written: not given here. Benzoyl(5-NH,2-NO2) = O=C(c1cc(N[*:1])ccc1[N+](=O)[O-])[*:2]; 2Abz = Nc1ccccc1C(=O)O

Legend:
[1] = tested on: urine samples from subjects with ovarian cancer or another neoplastic disease; test: Selectivity of substrate cleavage by cancer type (urine samples); assay type: biochemical, human; conditions: intestine, kidney, prostate, pancreas, stomach, lung, uterine body and liver cancer samples (FIG. 3)
Text: Arabic numerals indicate the numbers of given cancer types. The samples tested for each type of cancer were derived from 20 different patients for each of the tested cancers. The results are mean values for given cancer types.
(§1) The activity of the novel compounds according to the invention was studied in a group of 20 subjects diagnosed with ovarian cancer using the representative compound according to the invention. […] The remaining compounds according to the invention are characterized by the analogous mechanism of action. For this purpose, the representative compound according to the invention, ABZ^1-Asp^2-Thr^3-Phe^4-Ile^5-NH2, was dissolved in dimethyl sulfoxide (at a concentration of 0.5 mg/mL) and then […] of the solution was mixed with […] of a buffer (200 mM Tris-HCl, pH 8.0) and […] of urine from a subject suffering from ovarian cancer. The measurement was performed on a 96-well plate designed for measuring absorbance and each sample was analysed in triplicate at the temperature of 37° C. The duration of the measurement was 60 minutes. During the measurement, the wavelength characteristic for the chromophore (ANB-NH2) being released was monitored at the wavelength 405 nm (range 380-430 nm).
Furthermore, the dependence of the cleavage selectivity of the substrate, i.e. the compound according to the invention, on the cancer type being examined, was studied. […]

[2] = tested on: enzyme(s) in the studied material; test: Dependence of substrate hydrolysis on reaction pH; assay type: biochemical; conditions: FIG. 4
Procedure: Furthermore, measurements concerning the dependence of the proteolytic activity of the representative compound according to the invention on the reaction pH were performed.

[3] = tested on: urine taken from a person diagnosed with ovarian cancer; test: RP HPLC analysis of substrate cleavage in urine; assay type: biochemical, human; conditions: randomly selected urine sample from a person diagnosed with ovarian cancer (FIG. 1)
[4] = tested on: urine samples taken from healthy persons (without a cancer diagnosis); test: Absorbance measurement of substrate hydrolysis in urine from healthy subjects; assay type: biochemical, human; conditions: for Results of absorbance analysis (rate of hydrolysis of the substrate): 405 nm, 37° C., 60 minutes, pH 8.0, triplicate
[5] = tested on: enzymatic (proteolytic) activity in urine from a subject suffering from ovarian cancer; test: Absorbance measurement of substrate hydrolysis in urine from subjects with ovarian cancer; assay type: biochemical, human; conditions: for Results of absorbance analysis (rate of hydrolysis of the substrate): 405 nm, 37° C., 60 minutes, pH 8.0, triplicate
Procedure: as §1

“ABZ-Asp-Thr-Phe-Ile-ANB-NH2 ([2Abz]DTFI-{Benzoyl(5-NH,2-NO2)-NH2})” was tested, and the “cleavage / increase in absorbance with samples of other cancers” value [1] was “is not subject to cleavage”, the “dependence of the hydrolysis level of the substrate on pH” value [2] was “maximum activity at alkaline pH” and the “cleavage products by RP HPLC” value [3] was “cleaves into the peptide fragment ABZ-Asp-Thr-Phe-Ile-OH and the chromophore group of the compound (ANB-NH2)”. The “increase in absorbance within the diagnostic range” value ([4]; 20 urine samples from healthy subjects (Z21 to Z40)) was “no increase in absorbance; also recorded: does not lead to an increase in absorbance”, the “Results of absorbance analysis (rate of hydrolysis of the substrate)” value (“Results of absorbance analysis” for short) ([4]; urine sample Z21, healthy subject) was 0.000000 and the “Results of absorbance analysis” value ([4]; urine sample Z22, healthy subject) was 0.000000. For the same substance, the “Results of absorbance analysis” value ([4]; urine sample Z23, healthy subject) was 0.000000, the “Results of absorbance analysis” value ([4]; urine sample Z24, healthy subject) was 0.000000 and the “Results of absorbance analysis” value ([4]; urine sample Z25, healthy subject) was 0.000000. For the same substance, the “Results of absorbance analysis” value ([4]; urine sample Z26, healthy subject) was 0.000000, the “Results of absorbance analysis” value ([4]; urine sample Z27, healthy subject) was 0.000000 and the “Results of absorbance analysis” value ([4]; urine sample Z28, healthy subject) was 0.000000. The “Results of absorbance analysis” value ([4]; urine sample Z29, healthy subject) was 0.000000, the “Results of absorbance analysis” value ([4]; urine sample Z30, healthy subject) was 0.000000 and the “Results of absorbance analysis” value ([4]; urine sample Z31, healthy subject) was 0.000000. For the same substance, the “Results of absorbance analysis” value ([4]; urine sample Z32, healthy subject) was 0.000000, the “Results of absorbance analysis” value ([4]; urine sample Z33, healthy subject) was 0.000000 and the “Results of absorbance analysis” value ([4]; urine sample Z34, healthy subject) was 0.000000. The “Results of absorbance analysis” value ([4]; urine sample Z35, healthy subject) was 0.000000, the “Results of absorbance analysis” value ([4]; urine sample Z36, healthy subject) was 0.000000 and the “Results of absorbance analysis” value ([4]; urine sample Z37, healthy subject) was 0.000000. The “Results of absorbance analysis” value ([4]; urine sample Z38, healthy subject) was 0.000000, the “Results of absorbance analysis” value ([4]; urine sample Z39, healthy subject) was 0.000000 and the “Results of absorbance analysis” value ([4]; urine sample Z40, healthy subject) was 0.000000. For the same substance, the “colour intensity of the solution (absorbance in time)” value ([5]; all urine samples from persons diagnosed with ovarian cancer (samples 1-20)) was “increased with time”, the “efficiency of cleavage of the substrate between samples” value ([5]; samples 3 and 17 compared with samples 1 or 13) was “less efficiently” and the “Results of absorbance analysis” value ([5]; urine sample 1, ovarian cancer) was 0.0066 and 0.006 and 0.0065. For the same substance, the “Results of absorbance analysis” value ([5]; urine sample 2, ovarian cancer) was 0.052 and 0.042 and 0.051, the “Results of absorbance analysis” value ([5]; urine sample 3, ovarian cancer) was 0.0087 and 0.0088 and 0.0086 and the “Results of absorbance analysis” value ([5]; urine sample 4, ovarian cancer) was 0.0069 and 0.0051 and 0.0067. For the same substance, the “Results of absorbance analysis” value ([5]; urine sample 5, ovarian cancer) was 0.044 and 0.038 and 0.042, the “Results of absorbance analysis” value ([5]; urine sample 6, ovarian cancer) was 0.037 and 0.022 and 0.028 and the “Results of absorbance analysis” value ([5]; urine sample 8, ovarian cancer) was 0.014 and 0.022 and 0.015. The “Results of absorbance analysis” value ([5]; urine sample 9, ovarian cancer) was 0.0088 and 0.0101 and 0.0092, the “Results of absorbance analysis” value ([5]; urine sample 10, ovarian cancer) was 0.009 and 0.0093 and 0.0085 and the “Results of absorbance analysis” value ([5]; urine sample 11, ovarian cancer) was 0.0123 and 0.0112 and 0.0145. For the same substance, the “Results of absorbance analysis” value ([5]; urine sample 12, ovarian cancer) was 0.0216 and 0.021 and 0.0199, the “Results of absorbance analysis” value ([5]; urine sample 13, ovarian cancer) was 0.0045 and 0.0052 and 0.0048 and the “Results of absorbance analysis” value ([5]; urine sample 14, ovarian cancer) was 0.005 and 0.0061 and 0.0058. For the same substance, the “Results of absorbance analysis” value ([5]; urine sample 15, ovarian cancer) was 0.0017 and 0.0015 and 0.0021, the “Results of absorbance analysis” value ([5]; urine sample 16, ovarian cancer) was 0.0079 and 0.0084 and 0.0072 and the “Results of absorbance analysis” value ([5]; urine sample 18, ovarian cancer) was 0.0073 and 0.0068 and 0.0075. The “Results of absorbance analysis” value ([5]; urine sample 19, ovarian cancer) was 0.055 and 0.051 and 0.048 and the “Results of absorbance analysis” value ([5]; urine sample 20, ovarian cancer) was 0.0077 and 0.0075 and 0.0081.
